What was measured:
[1] = Dissociation constant, pKa of the compound; type: physicochemical
[2] = Unbound fraction in plasma (unknown origin) under normal atmospheric condition at pH 7.22 after 6 hrs by equilibrium dialysis method; type: ADME, cell-free
[3] = Unbound fraction in plasma (unknown origin) at pH 7.4 after 6 hrs by equilibrium dialysis method in presence of 5% CO2; type: ADME, cell-free
[4] = Unbound fraction in plasma (unknown origin) at pH 7.63 after 6 hrs by equilibrium dialysis method in presence of 5% CO2; type: ADME, cell-free
[5] = Unbound fraction in plasma (unknown origin) under normal atmospheric condition at pH 7.72 after 6 hrs by equilibrium dialysis method; type: ADME, cell-free
[6] = Drug recovery in plasma (unknown origin); type: ADME, cell-free

SMILES | pKa [1] | fraction unbound at 6 h [2] | fraction unbound at 6 h [3] | fraction unbound at 6 h [4] | fraction unbound at 6 h [5] | Compound recovery [6] [%]
COc1ccc([C@@H]2Sc3ccccc3N(CCN(C)C)C(=O)[C@@H]2OC(C)=O)cc1 [DILTIAZEM] | 8 | 0.417 | 0.349 | 0.35 | 0.298 | > 70
O=C(O)Cc1ccccc1Nc1c(Cl)cccc1Cl [DICLOFENAC] |  |  |  |  |  | > 70
NC(=O)N1c2ccccc2C=Cc2ccccc21 [CARBAMAZEPINE] |  | 0.303 | 0.291 | 0.288 | 0.299 | > 70
O=C(CCCN1CCC(O)(c2ccc(Cl)cc2)CC1)c1ccc(F)cc1 [HALOPERIDOL] |  | 0.223 | 0.161 | 0.164 | 0.124 | > 70
CC(=O)CC(c1ccccc1)c1c(O)c2ccccc2oc1=O (stereo not given) [WARFARIN] |  |  |  |  |  | > 70
O=C1CC2(CCCC2)CC(=O)N1CCCCN1CCN(c2ncccn2)CC1 [BUSPIRONE] | 7.3 |  |  |  |  | > 70
Cc1nc2n(c(=O)c1CCN1CCC(c3noc4cc(F)ccc34)CC1)CCCC2 [RISPERIDONE] |  | 0.276 | 0.186 | 0.222 | 0.163 | > 70
CN(C)CCCN1c2ccccc2CCc2ccccc21 [IMIPRAMINE] |  | 0.22 | 0.181 | 0.172 | 0.105 | > 70
C=C[C@H]1C[N@@]2CC[C@H]1C[C@@H]2[C@@H](O)c1ccnc2ccc(OC)cc12 [QUINIDINE] |  |  |  |  |  | > 70
CNCCC(Oc1ccc(C(F)(F)F)cc1)c1ccccc1 (stereo not given) [FLUOXETINE] |  | 0.079 | 0.056 | 0.063 | 0.04 | > 70
CC(C)NCC(O)COc1cccc2ccccc12 (stereo not given) [PROPRANOLOL] |  | 0.315 | 0.231 | 0.213 | 0.216 | > 70
CCN(CC)C(=O)C1(c2ccccc2)CC1CN (stereo not given) | 9.7 | 0.809 | 0.837 | 0.777 | 0.828 | > 70
N[C@@H]1C[C@H]1c1ccccc1.N[C@H]1C[C@@H]1c1ccccc1 (racemic) [TRANYLCYPROMINE] | 8.2 | 0.63 | 0.612 | 0.53 | 0.49 | > 70
Cc1ncc2n1-c1ccc(Cl)cc1C(c1ccccc1F)=NC2 [MIDAZOLAM] | 9 | 0.034 | 0.036 | 0.041 | 0.019 | 63
COc1ccc(CCN(C)CCCC(C#N)(c2ccc(OC)c(OC)c2)C(C)C)cc1OC (stereo not given) |  |  |  |  |  | > 70
CN1CCN2c3ncccc3Cc3ccccc3C2C1 (stereo not given) [MIRTAZAPINE] |  | 0.32 | 0.286 | 0.266 | 0.16 | > 70
COC(=O)C1=C(C)NC(C)=C(C(=O)OCCN(C)Cc2ccccc2)C1c1cccc([N+](=O)[O-])c1 (stereo not given) [NICARDIPINE] | 7.2 | 0.008 | 0.005 | 0.008 | 0.003 | > 70
CC(CN(C)C)CN1c2ccccc2CCc2ccccc21 (stereo not given) [TRIMIPRAMINE] | 8.4 | 0.106 | 0.054 | 0.052 | 0.037 | > 70
Fc1ccc([C@@H]2CCNC[C@H]2COc2ccc3c(c2)OCO3)cc1 [PAROXETINE] | 9.5 | 0.136 | 0.099 | 0.089 | 0.074 | > 70
CCn1nc(C(=O)O)c(=O)c2cc3c(cc21)OCO3 [CINOXACIN] | 4.7 | 0.251 | 0.214 | 0.23 | 0.266 | > 70
CN1C(=O)CN=C(c2ccccc2)c2cc(Cl)ccc21 [DIAZEPAM] |  |  |  |  |  | > 70
CN1CCN(C2=Nc3cc(Cl)ccc3Nc3ccccc32)CC1 [CLOZAPINE] |  | 0.101 | 0.081 | 0.058 | 0.042 | > 70
